Test results taken from patent publication US20240180876A1, “COMPOSITION FOR INCREASING RED BLOOD CELLS AND/OR HEMOGLOBIN” (SUNTORY HOLDINGS LIMITED, priority 2021, published 2024).

Key:
[1] = placebo-controlled, randomized, double-blind, parallel-group human study of red blood cell count, hemoglobin concentration and blood taurine level; type: in vivo; conditions: male and female adults, one capsule with 20 mg L-ergothioneine per day for four weeks, pre-testing to week 4, versus control food group
Method: In order to evaluate the influence of supplements containing ergothioneine on the red blood cell count in the blood, blood hemoglobin concentration, and blood taurine level, a placebo-controlled, randomized, double-blind, parallel-group study was conducted on subjects including male and female adults (46 subjects in a test food group; 46 subjects in a control food group; 92 subjects in total). In this study, one capsule containing 20 mg ergothioneine (test food) or one capsule not containing ergothioneine (control food) was fed per day for four weeks. The red blood cell count in the blood, blood hemoglobin concentration, and blood taurine level of each subject were measured for pre-testing before starting the study (before starting ingestion of the test food or control food). After ingestion of the test food or control food for four weeks, the red blood cell count in the blood, blood hemoglobin concentration, and blood taurine level of each subject were measured again (testing on week 4). The red blood cell count in the blood and blood hemoglobin concentration were measured by known methods. […] Specifically, the amount of change in the test food group at the time of testing on week 4 was determined by subtracting the measurements (average) of the test food group at the time of pre-testing from the measurements (average) of the test food group at the time of testing on week 4. Similarly, the amount of change in the control food group at the time of testing on week 4 was determined by subtracting the measurements (average) at the time of pre-testing from the measurements (average) at the time of testing on week 4. […]

[2] = mice orally administered, versus mice not administered; cited from earlier work

C[N+](C)(C)[C@@H](Cc1c[nH]c(=S)[nH]1)C(=O)[O-] [L-ergothioneine]
change in blood hemoglobin concentration [1]: significantly increased
change in blood taurine level (CE-TOF-MS) [1]: significantly increased
change in red blood cell count in the blood [1]: significantly increased
peritesticular fat weight [2]: lower
triglyceride (neutral fat) level in plasma [2]: lower
